{
  "source": "patent US9572787B2",
  "about": "“Inhibition of renal fibrosis” (Rhode Island Hospital, priority 2011, dated 2017)",
  "key": {"NRK-49F cells [1]": {"test_system": "NRK-49F cells", "test": "Serum (5% FBS)-stimulated activation and kinase phosphorylation in renal interstitial fibroblasts (immunoblot)", "format": "cell-based, rat", "settings": "36 h, suramin 100 μM", "description": "(§1) Cell Culture and Treatments. NRK-49F cells were cultured in Dulbecco's modified eagle's medium (DMEM) (Sigma-Aldrich, St. Louis, Mo.) containing 5% fetal bovine serum (FBS), 0.5% penicillin and streptomycin in an atmosphere of 5% CO2 and 95% air at 37° C. […] For TGF-β1 treatment, NRK-49F were starved for 24 h by incubation with 0.5% FBS containing DMEM and then exposed to TGF-β1 (0.5-2 ng/ml) for 24 h.\n(§2) Immunoblot Analysis. Immunoblot analysis of NRK-49F cells and tissue samples were conducted as described previously. The densitometry analysis of immunoblot results was conducted by using NIH Image software (National Institutes of Health, Bethesda, Md.)."}, "NRK-49F cells [2]": {"test_system": "NRK-49F cells", "test": "TGF-β1-induced activation of renal interstitial fibroblasts (immunoblot)", "format": "cell-based, rat", "settings": "2 ng/ml TGF-β1, 24 h", "description": "as §1, §2"}, "obstructed kidney (UUO)": {"test_system": "obstructed kidney (UUO)", "test": "UUO model, delayed administration of suramin at day 3 of obstruction", "format": "in vivo, mouse", "description": "Animals and the UUO Model. The UUO model used was described above. The abdominal cavity was exposed via a midline incision and the left ureter was isolated and ligated. Sham-operated animal received the same surgical procedures but without ureter ligation. To establish the time course of renal fibrogenesis in this model, four groups of mice (n=5) were killed at days 1, 3, 7, and 14, respectively, after left ureter ligation. […] Control mice were injected with the equal volume of vehicle (0.9% saline). At the end of the experiments, mice were killed and the kidneys were removed. One part of the kidneys was fixed in 10% phosphate-buffered formalin for histological studies. Another part was snap-frozen in liquid nitrogen and stored at −80° C. for protein extractions."}, "NRK-49F cells [3]": {"test_system": "NRK-49F cells", "test": "Delayed suramin treatment of TGF-β1-pretreated renal interstitial fibroblasts", "format": "cell-based, rat", "settings": "TGF-β1 pretreatment 24 and 48 h, then suramin 100 μM for additional 24 and 48 h with TGF-β1", "description": "At 48 h after pretreatment with TGF-β1, expression of α-SMA and fibronectin was induced, which is similar to the in-vivo situation."}, "NRK-49F cells [4]": {"test_system": "NRK-49F cells", "test": "Cleaved PARP and cleaved caspase-3 (apoptosis hallmarks), immunoblot", "format": "cell-based, rat", "settings": "100 μM suramin, 36 h", "description": "Cell Culture and Treatments. NRK-49F cells were cultured in Dulbecco's modified eagle's medium (DMEM) (Sigma-Aldrich, St. Louis, Mo.) containing 5% fetal bovine serum (FBS), 0.5% penicillin and streptomycin in an atmosphere of 5% CO2 and 95% air at 37° C. […] Immunoblot Analysis. Immunoblot analysis of NRK-49F cells and tissue samples were conducted as described previously. The densitometry analysis of immunoblot results was conducted by using NIH Image software (National Institutes of Health, Bethesda, Md.)."}, "obstructive kidney (UUO)": {"test_system": "obstructive kidney (UUO)", "test": "UUO obstructive nephropathy model, single dose of suramin immediately after ureteral ligation", "format": "in vivo, mouse", "description": "UUO and Remnant Kidney Models and Suramin Treatment. The UUO model was established in male C57 back mice that weighed 20-25 g (Jackson Laboratory, Bar Harbor, Me.) as described in our previous study. Briefly, the abdominal cavity was exposed via a midline incision and the left ureter was isolated and ligated. The contralateral kidney was used as controls. […] Six mice were used in each group.\nas §2\nImmunofluorescent and Immunohistochemical Staining Immunofluorescent and immunohistochemical staining was performed according to the procedure described in our previous studies. For assessment of renal fibrosis, masson trichrome staining was performed according to the protocol provided by the manufacture (Sigma, St. Louis, Mo.). The collagen tissue area (blue color) was quantitatively measured using Image Pro-Plus software (Media-Cybernetics, Silver Spring, Md., USA) by drawing a line around the perimeter of positive staining area, and the average ratio to each microscopic field (400×) was calculated and graphed.\nQuantitative Real-Time PCR. The procedure for quantitative qRT-PCR and the primers used for all measurements have been described previously. Briefly, total RNA from mouse kidney tissue was extracted using RNeasy Kit (QIAGEN, Valencia, Calif.). RNA (1 μg) was reverse transcribed using the AMV First Strand cDNA synthesis kit (Roche Diagnostics Corporation, Indianapolis, Ind.) and random oligodeoxynucleotide primers. Then, real time qRT-PCR amplifications were performed. Relative mRNA abundance was determined from the nanogram ratios of specific mRNA to 18S ribosomal RNA measured in the same samples, and fold change was calculated relative to the group of sham-operated mice with vehicle treatment. Template-free reactions for each pair of primers were also included as controls."}, "[5]": {"settings": "20 mg/kg at day 3, kidney at day 10"}, "[6]": {"settings": "1 mg/kg i.p. single dose, day 7"}, "[7]": {"settings": "5 mg/kg i.p. single dose, day 7"}, "[8]": {"settings": "10 mg/kg i.p. single dose, day 7"}, "[9]": {"settings": "20 mg/kg i.p. single dose, 21 days after UUO injury"}},
  "data": [
    {"molecule": "Cc1ccc(C(=O)Nc2ccc(S(=O)(=O)O)c3cc(S(=O)(=O)O)cc(S(=O)(=O)O)c23)cc1NC(=O)c1cccc(NC(=O)Nc2cccc(C(=O)Nc3cc(C(=O)Nc4ccc(S(=O)(=O)O)c5cc(S(=O)(=O)O)cc(S(=O)(=O)O)c45)ccc3C)c2)c1", "note": "[Suramin]", "values": [
      {"measurement": "phosphorylation of EGFR", "setting": "NRK-49F cells [1]", "value": "complete inhibition"},
      {"measurement": "phosphorylation of ERK1/2", "setting": "NRK-49F cells [1]", "value": "complete inhibition"},
      {"measurement": "phosphorylation of PDGFR", "setting": "NRK-49F cells [1]", "value": "complete inhibition"},
      {"measurement": "phosphorylation of STAT3", "setting": "NRK-49F cells [1]", "value": "complete inhibition"},
      {"measurement": "serum-induced fibronectin expression", "setting": "NRK-49F cells [1]", "value": "complete blockade"},
      {"measurement": "serum-induced α-SMA expression", "setting": "NRK-49F cells [1]", "value": "complete blockade"},
      {"measurement": "TGF-β1 induced phosphorylation of Smad2", "setting": "NRK-49F cells [2]", "value": "abolished"},
      {"measurement": "TGF-β1 induced phosphorylation of Smad3", "setting": "NRK-49F cells [2]", "value": "abolished"},
      {"measurement": "TGF-β1-induced fibronectin expression", "setting": "NRK-49F cells [2]; in the presence of suramin", "value": "abolished"},
      {"measurement": "TGF-β1-induced α-SMA expression", "setting": "NRK-49F cells [2]; in the presence of suramin", "value": "suppressed to the basal level"},
      {"measurement": "EGFR phosphorylation", "setting": "obstructed kidney (UUO); [5]", "value": "significant reduction"},
      {"measurement": "PDGFR phosphorylation", "setting": "obstructed kidney (UUO); [5]", "value": "significant reduction"},
      {"measurement": "Smad3 phosphorylation", "setting": "obstructed kidney (UUO); [5]", "value": "largely blocked"},
      {"measurement": "expression of total EGFR", "setting": "obstructed kidney (UUO); [5]", "value": "not affected"},
      {"measurement": "expression of total PDGFR", "setting": "obstructed kidney (UUO); [5]", "value": "not affected"},
      {"measurement": "phosphorylation of ERK1/2", "setting": "obstructed kidney (UUO); [5]", "value": "not further increased"},
      {"measurement": "phosphorylation of STAT3", "setting": "obstructed kidney (UUO); [5]", "value": "not further increased"},
      {"measurement": "total protein level of ERK1/2", "setting": "obstructed kidney (UUO); [5]", "value": "did not alter"},
      {"measurement": "total protein level of STAT3", "setting": "obstructed kidney (UUO); [5]", "value": "did not alter"},
      {"measurement": "α-SMA expression", "setting": "obstructed kidney (UUO); 20 mg/kg at day 3, both 7- and 14-day treatment groups", "value": "reduced"},
      {"measurement": "Masson trichrome-positive areas", "setting": "obstructed kidney (UUO); 20 mg/kg i.p. single dose at day 3, kidney at day 10", "value": "reduced on day 10 to a level similar to that in the kidney at 3 days of obstruction"},
      {"measurement": "TGF-β1-induced fibronectin expression", "setting": "NRK-49F cells [3]", "value": "suppressed further increase"},
      {"measurement": "TGF-β1-induced α-SMA expression", "setting": "NRK-49F cells [3]", "value": "suppressed further increase"},
      {"measurement": "cleavage of caspase-3", "setting": "NRK-49F cells [4]", "value": "did not induce cleavage"},
      {"measurement": "cleavage of poly (ADP-ribose) polymerase (PARP)", "setting": "NRK-49F cells [4]", "value": "did not induce cleavage"},
      {"measurement": "fibronectin expression in kidney", "setting": "obstructive kidney (UUO); [6]", "value": "slight reduction"},
      {"measurement": "α-SMA expression in kidney", "setting": "obstructive kidney (UUO); [6]", "value": "slight reduction"},
      {"measurement": "fibronectin expression in kidney", "setting": "obstructive kidney (UUO); [7]", "value": "further inhibition"},
      {"measurement": "α-SMA expression in kidney", "setting": "obstructive kidney (UUO); [7]", "value": "further inhibition"},
      {"measurement": "collagen 1 expression in kidney", "setting": "obstructive kidney (UUO); 5 mg/kg single dose, day 7", "value": "observed effect"},
      {"measurement": "fibronectin expression in kidney", "setting": "obstructive kidney (UUO); [8]", "value": "complete blockade"},
      {"measurement": "α-SMA expression in kidney", "setting": "obstructive kidney (UUO); [8]", "value": "significant, but incomplete, suppression"},
      {"measurement": "collagen 1 expression in kidney", "setting": "obstructive kidney (UUO); 10 mg/kg single dose, day 7", "value": "greater inhibition"},
      {"measurement": "suppression of fibronectin expression in kidney", "setting": "obstructive kidney (UUO); [9]", "value": "approximately 50%"},
      {"measurement": "suppression of α-SMA expression in kidney", "setting": "obstructive kidney (UUO); [9]", "value": "approximately 50%"},
      {"measurement": "EGF receptor phosphorylation", "setting": "obstructive kidney (UUO); 20 mg/kg single dose, day 7", "value": "abolished"},
      {"measurement": "ICAM-1 mRNA expression", "setting": "obstructive kidney (UUO); 20 mg/kg single dose, day 7", "value": "decreased"},
      {"measurement": "IL-1β mRNA expression", "setting": "obstructive kidney (UUO); 20 mg/kg single dose, day 7", "value": "decreased"},
      {"measurement": "PDGF receptor phosphorylation", "setting": "obstructive kidney (UUO); 20 mg/kg single dose, day 7", "value": "abolished"},
      {"measurement": "TGF-β1 mRNA expression reduced to (real-time PCR)", "setting": "obstructive kidney (UUO); 20 mg/kg single dose, day 7", "value": 45, "unit": "%"},
      {"measurement": "TGF-β1 type I receptor mRNA expression", "setting": "obstructive kidney (UUO); 20 mg/kg single dose, day 7", "value": "suppressed its basal expression"},
      {"measurement": "TGF-β type II receptor mRNA expression reduced to (real-time PCR)", "setting": "obstructive kidney (UUO); 20 mg/kg single dose, day 7", "value": 94, "unit": "%"},
      {"measurement": "TNF-α mRNA expression", "setting": "obstructive kidney (UUO); 20 mg/kg single dose, day 7", "value": "decreased"},
      {"measurement": "UUO injury-induced phosphorylation of Smad2", "setting": "obstructive kidney (UUO); 20 mg/kg single dose, day 7", "value": "abolished"},
      {"measurement": "UUO injury-induced phosphorylation of Smad3", "setting": "obstructive kidney (UUO); 20 mg/kg single dose, day 7", "value": "abolished"},
      {"measurement": "collagen 1 expression in kidney", "setting": "obstructive kidney (UUO); 20 mg/kg single dose, day 7", "value": "reduced its expression to the basal level"},
      {"measurement": "expression level of total ERK1/2", "setting": "obstructive kidney (UUO); 20 mg/kg single dose, day 7", "value": "did not affect"},
      {"measurement": "expression level of total STAT3", "setting": "obstructive kidney (UUO); 20 mg/kg single dose, day 7", "value": "did not affect"},
      {"measurement": "expression of total EGF receptor", "setting": "obstructive kidney (UUO); 20 mg/kg single dose, day 7", "value": "did not have an inhibitory effect"},
      {"measurement": "expression of total PDGF receptor", "setting": "obstructive kidney (UUO); 20 mg/kg single dose, day 7", "value": "did not have an inhibitory effect"},
      {"measurement": "expression of total Smad2", "setting": "obstructive kidney (UUO); 20 mg/kg single dose, day 7", "value": "not affected"},
      {"measurement": "expression of total Smad3", "setting": "obstructive kidney (UUO); 20 mg/kg single dose, day 7", "value": "not affected"},
      {"measurement": "leukocyte infiltration (naphthol-AS-D-chloroacetate esterase staining)", "setting": "obstructive kidney (UUO); 20 mg/kg single dose, day 7", "value": "reduced leukocyte infiltration to basal levels"},
      {"measurement": "morphological lesions and interstitial fibrosis (masson trichrome staining)", "setting": "obstructive kidney (UUO); 20 mg/kg single dose, day 7", "value": "obvious attenuation"},
      {"measurement": "phosphorylation of ERK1/2", "setting": "obstructive kidney (UUO); 20 mg/kg single dose, day 7", "value": "abolished"},
      {"measurement": "phosphorylation of STAT3", "setting": "obstructive kidney (UUO); 20 mg/kg single dose, day 7", "value": "abolished"},
      {"measurement": "collagen 1 expression in kidney", "setting": "obstructive kidney (UUO); 20 mg/kg single dose, day 21", "value": "partially suppressed"},
      {"measurement": "α-SMA expression in kidney", "setting": "obstructive kidney (UUO); 20 mg/kg vs 10 mg/kg i.p. single dose, day 7", "value": "did not further reduce"},
      {"measurement": "effective doses of suramin", "setting": "obstructive kidney (UUO); applicant's UUO and remnant kidney studies", "value": "5 to 10", "unit": "mg/kg"}
    ]}
  ]
}
